In EP0371388A2, “Acridine derivatives” (FUJISAWA PHARMACEUTICAL CO., LTD., priority 1988, dated 1990):

Columns and labels:
acetylcholinesterase = target: T1, acetylcholinesterase (Rattus norvegicus, UniProt P37136); experiment: Inhibition of acetylcholinesterase (enzyme assay); assay type: biochemical
T1 construct: The acetylcholinesterase used in this test was obtained from rat's corpus striatum; from tissue; host or cells: rat corpus striatum
T1 sequence (P37136 32-614): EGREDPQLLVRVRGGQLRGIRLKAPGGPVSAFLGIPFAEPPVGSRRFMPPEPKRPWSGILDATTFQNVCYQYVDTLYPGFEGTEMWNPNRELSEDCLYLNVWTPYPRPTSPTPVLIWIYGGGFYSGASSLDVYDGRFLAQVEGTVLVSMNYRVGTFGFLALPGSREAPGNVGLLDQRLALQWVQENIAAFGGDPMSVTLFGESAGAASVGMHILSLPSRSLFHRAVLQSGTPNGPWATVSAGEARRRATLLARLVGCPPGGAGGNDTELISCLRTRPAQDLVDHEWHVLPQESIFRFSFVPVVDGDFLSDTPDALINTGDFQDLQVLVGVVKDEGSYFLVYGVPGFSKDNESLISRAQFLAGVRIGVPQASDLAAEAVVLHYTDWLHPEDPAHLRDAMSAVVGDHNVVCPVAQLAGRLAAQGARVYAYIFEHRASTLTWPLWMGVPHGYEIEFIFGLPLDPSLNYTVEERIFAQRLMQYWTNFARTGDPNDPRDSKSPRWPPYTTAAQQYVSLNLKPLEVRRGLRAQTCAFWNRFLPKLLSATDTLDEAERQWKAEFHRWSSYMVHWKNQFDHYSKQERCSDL
Experimental: The ability to inhibit acetylcholinesterase was determined by the method (enzyme assay) described in Clinica Chimica Acta, 115 (1981) 163-170. The acetylcholinesterase used in this test was obtained from rat's corpus striatum.

[1] = system: deficit of memory induced by cycloheximide; experiment: Passive avoidance test; assay type: in vivo; details: Dose 0.032 mg/kg i.p.; ddY strain male mice given cycloheximide 30 mg/kg S.C.; step-down latency 24 hours after training
Description: 6-Weeks old ddY strain male mice (20 per group) were used. The effect of the test compound on deficit of memory induced by cycloheximide (a protein synthesis inhibitor) in passive avoidance task was examined.
The apparatus consists of a grid floor enclosed by a transparent acryl glass wall each section of which was 30 cm². At the center of this grid a wooden platform of 4 x 4 x 4 cm was fixed. This apparatus was set in a wooden semisoundproof box of 35 x 35 x 90 cm fitted with a 15W tungsten lamp.
Each mouse in groups (A), (B) and (C) was placed on the platform.
When the mouse stepped down from the platform and placed all its paws on the grid floor, an intermittent electrical footshock (1Hz, 0.5 sec, 60V, DC) was delivered for 15 seconds through the grid floor. […]
24 Hours after the training, each mouse was placed again on the platform and the response latency to step down from the platform was measured to an extent of 300 seconds at the longest.
Results were recorded as the mean response latency of step down for each experimental group of mice. […]

| Compound | IC50 (acetylcholinesterase) [µM] | Percentage of Recovery (%) [1] [%] |
| --- | --- | --- |
| Cc1ccc2c(N)c3c(nc2c1)CC(C)(C)CC3O (racemic) [(±)-9-Amino-1-hydroxy-3,3,6-trimethyl-1,2,3,4-tetrahydroacridine] | 0.87 |  |
| CC1(C)CCc2c(nc3cc(Cl)ccc3c2N)C1 [9-Amino-6-chloro-3,3-dimethyl-1,2,3,4-tetrahydroacridine] |  | 95 |
